Numbering of substitutions follows the chain as printed. Read-outs that look alike come from different tables or passages of the source. Where a SMILES comes first, the peptide text is derived from it.
Columns and labels:
[1] = target: T1, KcsA-Kv1.2 T+F chimera (Streptomyces lividans, UniProt P0A334, A54E/A57S/G53D/G56E/I60P/L59F/L81M/P55R/R52A/R64D/T61S/V84T/Y62I/Y82V); assay: Phage-binding competition assay, KcsA-Kv1.2 T+F; parameters: species or system human Kv1.2 turret and filter in Streptomyces lividans KcsA
T1 sequence (P0A334 1-160 R52A/G53D/A54E/P55R/G56E/A57S/L59F/I60P/T61S/Y62I/R64D/L81M/Y82V/V84T): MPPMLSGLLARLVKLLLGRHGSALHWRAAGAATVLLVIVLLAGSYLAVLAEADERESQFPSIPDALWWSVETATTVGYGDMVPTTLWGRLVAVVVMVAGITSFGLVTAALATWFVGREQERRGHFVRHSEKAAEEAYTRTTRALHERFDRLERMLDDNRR
Method: (§1) Phage stock solutions were diluted to working concentration with phage resuspension buffer supplemented with 2 mM DDM. For protein immobilization, the following amounts were used in a final volume of 50 μl/well: wt KcsA, 0.1 μg; KcsA-Kv1.1 T-only, 0.005 μg; KcsA-Kv1.1 T+F, 0.02 μg; KcsA-Kv1.2 T-only, 0.01 μg; KcsA-Kv1.2 T+F, 0.1 μg; KcsA-Kv1.3 T-only, 0.01 μg; and KcsA-Kv1.3 T+F, 0.1 μg. Protein samples were diluted in 50 μl of storage buffer (20 mM Tris pH8.0, 300 mM KCl, 2 mM DDM) and were added to the designated wells of a Pierce Clear, 96-Well Nickel Coated Plate (15442, Thermo Fisher Scientific), then incubated for 1 h at room temperature on a horizontal shaker at 130 rpm. The plate was blocked for 1 h at room temperature with 180 μl/well TBS-BSA supplemented with 1 mM DDM. Following blocking, the wells were washed 4× with washing buffer (300 μl TBS-Tween, 0.1% v/v) using a Wellwash Versa microplate washer (Thermo Fisher Scientific); then 50 μl phage solution (in TBS-BSA-Tween, 0.1% v/v, 2 mM DDM) at determined phage concentration was added to the wells and incubated for 1 h at room temperature on a horizontal shaker. The plate was washed 4× with washing buffer, then 50 μl anti-M13 IgG HRP (MA5-36125, Invitrogen) diluted to 1:2500 in TBS-Tween (0.1% v/v) was added to the wells and incubated for 1 h at room temperature. The plate was washed again 4× with 300 μl/well washing buffer. Finally, 50 μl/well 1-Step Ultra TMB-ELISA solution (34028, Thermo Fisher Scientific) was added to the wells, and the developing signal was stopped with 50 μl 1M HCl after 5 to 10 min. The light absorbance signal was read at 450 nm with Byonoy absorbance 96 plate reader (Byonoy GmbH).
(§2) For protein immobilization, the following amounts were used in a final volume of 50 μl/well: KcsA-Kv1.1 T-only, 0.005 μg; KcsA-Kv1.1 T+F, 0.01 μg; KcsA-Kv1.2 T-only, 0.025 μg; KcsA-Kv1.2 T+F, 0.0125 μg; KcsA-Kv1.3 T-only, 0.01 μg; and KcsA-Kv1.3 T+F, 0.1 μg. Protein samples were diluted in storage buffer. Binding of given concentrations of relevant ligand-displaying phages quantified by light absorbance ([…]) were investigated in a similar manner as in phage ELISA-binding assay, while different concentrations of competing toxin test substances were applied simultaneously. The results were converted to percent inhibitions (percent displacement) of the indicator phage binding, and relative affinities of the tested toxins were assessed by plotting percent displacements against log concentrations and determining half maximal inhibitory concentrations (IC50) by sigmoidal curve fitting using “Sigmoidal dose-response (variable slope) with least squares method” algorithm in GraphPad Prism 8 using the following equation: Y=Bottom+Top−Bottom/1+10^(LogEC50−×)⋅HillSlope

[2] = target: T2, KcsA-Kv1.2 T+F chimera (Streptomyces lividans, UniProt P0A334, R52A/G53D/A54E/P55R/G56E/A57S/L59F/I60P/T61S/Y62I/R64D/L81M/Y82V/V84T); assay: Phage-binding competition assay, KcsA-Kv1.2 T+F; parameters: species or system human Kv1.2 turret and filter in Streptomyces lividans KcsA; settings: rank by competition IC50 among MTX, ShK, KTX1
T2 sequence (P0A334 1-160 R52A/G53D/A54E/P55R/G56E/A57S/L59F/I60P/T61S/Y62I/R64D/L81M/Y82V/V84T): T1 sequence (P0A334 1-160 R52A/G53D/A54E/P55R/G56E/A57S/L59F/I60P/T61S/Y62I/R64D/L81M/Y82V/V84T)
Method: as §1, §2

[3] = target: T3, KcsA-Kv1.1 T-only chimera (Streptomyces lividans, UniProt P0A334, A54E/A57S/G53E/G56E/I60S/L59F/P55A/Q58H/R52A/R64D/T61S/Y62I); assay: Phage-binding competition assay, KcsA-Kv1.1 T-only; parameters: species or system human Kv1.1 turret in Streptomyces lividans KcsA
T3 sequence (P0A334 1-160 R52A/G53E/A54E/P55A/G56E/A57S/Q58H/L59F/I60S/T61S/Y62I/R64D): T1 sequence (P0A334 1-160 R52A/G53D/A54E/P55R/G56E/A57S/L59F/I60P/T61S/Y62I/R64D/L81M/Y82V/V84T) with D53E, R55A, Q58H, P60S, M81L, V82Y, T84V
Method: as §1, §2

[4] = target: T4, KcsA-Kv1.1 T-only chimera (Streptomyces lividans, UniProt P0A334, R52A/G53E/A54E/P55A/G56E/A57S/Q58H/L59F/I60S/T61S/Y62I/R64D); assay: Phage-binding competition assay, KcsA-Kv1.1 T-only; parameters: species or system human Kv1.1 turret in Streptomyces lividans KcsA; settings: for competition binding to KcsA-Kv1.1 T-only, in words: ShK-phage competition, native peptide, Fig. 8E (ligand-binding pattern); for Rank, T-only chimera (Kv1.1): rank by competition IC50 among ShK, KTX1, MTX
T4 sequence (P0A334 1-160 R52A/G53E/A54E/P55A/G56E/A57S/Q58H/L59F/I60S/T61S/Y62I/R64D): T1 sequence (P0A334 1-160 R52A/G53D/A54E/P55R/G56E/A57S/L59F/I60P/T61S/Y62I/R64D/L81M/Y82V/V84T) with D53E, R55A, Q58H, P60S, M81L, V82Y, T84V
Method: as §1, §2

[5] = displacement of HgTx1-phage, KcsA-Kv1.2 T+F 0.0125 μg/well on nickel-coated plate, mean ± SD (n = 3), read-out: IC50, T+F chimera (Kv1.2)
[6] = displacement of ShK-phage, KcsA-Kv1.1 T-only 0.005 μg/well on nickel-coated plate, mean ± SD (n = 3), NQ = not quantifiable, read-out: IC50, T-only chimera (Kv1.1)

SMILES	IC50 [1, 5] [nM]	Rank, T+F chimera (Kv1.2) [2]	IC50 [3, 6] [nM]	competition binding to KcsA-Kv1.1 T-only, in words [4]	Rank, T-only chimera (Kv1.1) [4]	IC50 ([1]; HgTx1-phage competition, KcsA-Kv1.2 T+F, value given in figure, sigmoidal fit to means of three replicates, read-out: IC50 (Fig. 7F)) [nM]	competition binding to KcsA-Kv1.1 T-only, in words ([4]; listed as MTX1)	IC50 ([3]; ShK-phage competition, T-only KcsA-Kv1.1, value given in figure, sigmoidal fit to means of three replicates, read-out: IC50 (Fig. 8E)) [nM]
CC[C@H](C)[C@H](NC(=O)[C@H](CCC(=O)O)NC(=O)[C@@H](NC(=O)CN)C(C)C)C(=O)N[C@@H](CC(N)=O)C(=O)N[C@H](C(=O)N[C@@H](CCCCN)C(=O)N[C@H]1CSSC[C@@H]2NC(=O)[C@H](CCCCN)NC(=O)CNC(=O)[C@H](Cc3ccccc3)NC(=O)[C@H](CCCNC(=N)N)NC(=O)[C@H](CCSC)NC(=O)CNC(=O)[C@H](C)NC(=O)[C@H](CC(=O)O)NC(=O)[C@H](CCCCN)NC(=O)[C@@H]3CSSC[C@@H](C(=O)N[C@H](C(=O)N4CCC[C@H]4C(=O)N[C@@H](CCCCN)C(=O)O)[C@@H](C)O)NC(=O)[C@H](Cc4c[nH]cn4)NC(=O)[C@H](CSSC[C@H](NC(=O)[C@H](CCC(N)=O)NC(=O)[C@@H]4CCCN4C(=O)[C@H](CO)NC(=O)CNC(=O)[C@H](CO)NC1=O)C(=O)N[C@@H](CC(C)C)C(=O)N[C@@H](CCCCN)C(=O)N1CCC[C@H]1C(=O)N3)NC(=O)[C@H](CCCCN)NC(=O)[C@H](CCCNC(=N)N)NC(=O)[C@H](CC(N)=O)NC(=O)[C@H](CCSC)NC2=O)C(C)C [KTX1, Kaliotoxin-1]	205	3	1.27	ShK > KTX1 > MTX	2	–	–	–
CC[C@H](C)[C@@H]1NC(=O)[C@@H]2CSSC[C@H](NC(=O)[C@H](CO)NC(=O)[C@@H](N)C(C)C)C(=O)N[C@@H]([C@@H](C)O)C(=O)NCC(=O)N[C@@H](CO)C(=O)N[C@@H](CCCCN)C(=O)N[C@@H](CC(=O)O)C(=O)N[C@@H](CSSC[C@@H](C(=O)N[C@@H](CCCCN)C(=O)N[C@H]3CSSC[C@@H](C(N)=O)NC(=O)CNC(=O)[C@H](Cc4ccc(O)cc4)NC3=O)NC(=O)[C@H](CO)NC(=O)[C@H](CCCCN)NC(=O)[C@H](CC(N)=O)NC1=O)C(=O)N[C@@H](Cc1ccc(O)cc1)C(=O)N[C@@H](C)C(=O)N1CCC[C@H]1C(=O)N[C@H]1CSSC[C@H](NC(=O)CNC(=O)[C@H]([C@@H](C)O)NC(=O)[C@H](CCC(N)=O)NC(=O)[C@H](CCCCN)NC(=O)[C@H](CCCNC(=N)N)NC1=O)C(=O)N1CCC[C@H]1C(=O)N[C@@H](CC(N)=O)C(=O)N[C@@H](C)C(=O)N[C@@H](CCCCN)C(=O)N2 [MTX, Maurotoxin] (HELM PEPTIDE1{V.S.C.T.G.S.K.D.C.Y.A.P.C.R.K.Q.T.G.C.P.N.A.K.C.I.N.K.S.C.K.C.Y.G.C.[am]}$PEPTIDE1,PEPTIDE1,3:R3-24:R3|PEPTIDE1,PEPTIDE1,9:R3-29:R3|PEPTIDE1,PEPTIDE1,13:R3-19:R3|PEPTIDE1,PEPTIDE1,31:R3-34:R3$$$V2.0; N-terminus and C-terminus assumed)	–	1	> 1000	ShK > KTX1 > MTX	3	0.129	negligible binding	–
CC[C@H](C)[C@@H]1NC(=O)[C@@H](NC(=O)[C@H](CO)NC(=O)[C@@H](N)CCCNC(=N)N)CSSC[C@@H](C(=O)O)NC(=O)[C@H]([C@@H](C)O)NC(=O)CNC(=O)[C@@H]2CSSC[C@@H]3NC(=O)[C@H](CCC(N)=O)NC(=O)[C@H](Cc4ccccc4)NC(=O)[C@H](C)NC(=O)[C@H]([C@@H](C)O)NC(=O)[C@H](CSSC[C@H](NC(=O)[C@H](Cc4ccccc4)NC(=O)[C@H](CO)NC(=O)[C@H](CC(C)C)NC(=O)[C@H](CCCNC(=N)N)NC(=O)[C@H](Cc4ccc(O)cc4)NC(=O)[C@H](CCCCN)NC(=O)[C@H](CCSC)NC(=O)[C@H](CO)NC(=O)[C@H](Cc4c[nH]cn4)NC(=O)[C@H](CCCCN)NC3=O)C(=O)N[C@@H](CCCNC(=N)N)C(=O)N[C@@H](CCCCN)C(=O)N[C@@H]([C@@H](C)O)C(=O)N2)NC(=O)[C@H](CCCNC(=N)N)NC(=O)[C@H](CO)NC(=O)[C@H](CCCCN)NC(=O)[C@@H]2CCCN2C(=O)[C@H]([C@@H](C)CC)NC(=O)[C@H]([C@@H](C)O)NC(=O)[C@H](CC(=O)O)NC1=O [ShK, Stichodactyla toxin]	15.9	2	–	ShK > KTX1 > MTX	1	–	–	0.317

— article PMC11002876, “KcsA-Kv1.x chimeras with complete ligand-binding sites provide improved predictivity for screening selective Kv1.x blockers” (The Journal of Biological Chemistry, 2024)
